Measured values reported in the supplement of paper PMC10307832.

Key:
Assay in all cases: relative viability (nuclei count vs DMSO), 5 days (fraction); higher = more cells survive
Alpelisib + OSI-027 = compound: Cc1nc(NC(=O)N2CCC[C@H]2C(N)=O)sc1-c1ccnc(C(C)(C)C(F)(F)F)c1 [Alpelisib] + COc1cccc2cc(-c3nc([C@H]4CC[C@H](C(=O)O)CC4)n4ncnc(N)c34)[nH]c12 [OSI-027] (partner 0.5 µM)
Summary of the method: (§1)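 Dosing by pin tool came one day after lung cancer cell lines were seeded in 1536-well plates, using either one drug or a fixed anchor-drug dose plus five library-drug doses (not always all listed) in √10 steps. After 5 days, nuclei were counted on 4× images. Relative viability is treated-well nuclei count divided by vehicle-well nuclei count, and values are medians of duplicate plates.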

Alpelisib + Pemetrexed = compound: Cc1nc(NC(=O)N2CCC[C@H]2C(N)=O)sc1-c1ccnc(C(C)(C)C(F)(F)F)c1 [Alpelisib] + Nc1nc2[nH]cc(CCc3ccc(C(=O)N[C@@H](CCC(=O)O)C(=O)O)cc3)c2c(=O)[nH]1 [Pemetrexed] (partner 0.2 µM)
Summary of the method: as §1

Vemurafenib + Bortezomib = compound: CCCS(=O)(=O)Nc1ccc(F)c(C(=O)c2c[nH]c3ncc(-c4ccc(Cl)cc4)cc23)c1F [Vemurafenib] + CC(C)C[C@H](NC(=O)[C@H](Cc1ccccc1)NC(=O)c1cnccn1)B(O)O [Bortezomib] (partner 0.002 µM)
Summary of the method: as §1

Vemurafenib + Foretinib = compound: CCCS(=O)(=O)Nc1ccc(F)c(C(=O)c2c[nH]c3ncc(-c4ccc(Cl)cc4)cc23)c1F [Vemurafenib] + COc1cc2c(Oc3ccc(NC(=O)C4(C(=O)Nc5ccc(F)cc5)CC4)cc3F)ccnc2cc1OCCCN1CCOCC1 [Foretinib] (partner 0.25 µM)
Summary of the method: as §1

Cell Line	relative viability (Alpelisib + OSI-027; first compound 0.04 µM)	relative viability (Alpelisib + OSI-027; first compound 0.1265 µM)	relative viability (Alpelisib + OSI-027; first compound 0.4 µM)	relative viability (Alpelisib + OSI-027; first compound 1.265 µM)	relative viability (Alpelisib + OSI-027; first compound 4 µM)	relative viability (Alpelisib + Pemetrexed; first compound 0.04 µM)	relative viability (Alpelisib + Pemetrexed; first compound 0.1265 µM)	relative viability (Alpelisib + Pemetrexed; first compound 0.4 µM)	relative viability (Alpelisib + Pemetrexed; first compound 1.265 µM)	relative viability (Alpelisib + Pemetrexed; first compound 4 µM)	relative viability (Vemurafenib + Bortezomib; first compound 0.03162 µM)	relative viability (Vemurafenib + Bortezomib; first compound 0.1 µM)	relative viability (Vemurafenib + Bortezomib; first compound 0.3162 µM)	relative viability (Vemurafenib + Bortezomib; first compound 1 µM)	relative viability (Vemurafenib + Foretinib; first compound 0.03162 µM)	relative viability (Vemurafenib + Foretinib; first compound 0.1 µM)	relative viability (Vemurafenib + Foretinib; first compound 0.3162 µM)	relative viability (Vemurafenib + Foretinib; first compound 1 µM)
LXF-289	0.725	0.626	0.685	0.567	0.427	0.899	0.866	0.999	0.904	0.949	1.01	0.953	0.966	1.1	0.968	0.931	1.07	1.07
NCI-H23	0.672	0.485	0.521	0.363	0.314	0.78	0.622	0.726	0.602	0.416	1	1.01	1.15	1.29	0.981	0.685	0.953	0.719
NCI-H322M	0.56	0.527	0.515	0.36	0.41	0.561	0.61	0.588	0.489	0.578	1.2		1.43	1.2	0.923			1.02
NCI-H441	0.656	0.64	0.643	0.296	0.305	0.273	0.269	0.28	0.264	0.272	0.336	0.482		0.412	0.962	0.696	0.919	0.912
NCI-H460	0.545	0.623	0.534	0.242	0.137	0.0625	0.0624	0.0552	0.0558	0.033	0.982	1.1	0.932	1.04	0.96	0.982	0.909	1.05
NCI-H520	0.21	0.239	0.229	0.188	0.189	0.609	0.716	0.707	0.557	0.413	0.46	0.487	0.722	0.454	0.702	0.763	0.897	0.626
NCI-H596	0.629	0.571	0.589	0.457	0.357	0.44	0.446	0.503	0.41	0.42	1.05	0.896	0.802	1.05	0.921	0.643	0.695	0.922
NCI-H647	0.614	0.576	0.626	0.392	0.471	0.182	0.168	0.193	0.161	0.155	0.881	0.96	0.739	0.874	1.12	1.11	1.34	1.02
NCI-H650	0.552	0.435	0.488	0.357	0.325	0.909	0.923	0.879	0.794	0.757	0.668	0.899	0.443	0.423	1.01	0.983		0.879
NCI-H661	0.628	0.668	0.709	0.523	0.493	0.941	1.01	0.961	0.915	0.796	0.877	0.663	0.765	0.778	1.06	0.956	1.08	0.965
NCI-H838	0.386	0.366	0.317	0.244	0.211	0.257	0.238	0.244	0.229	0.199	0.707	0.723		1.15	0.964	1.05		1.07
NCI-H1355	0.406	0.325	0.311	0.285	0.235	1.03	1.03	1.01	0.934	0.926	1.21	1.19	1.15	1.23	0.922	0.924	1	1.03
NCI-H1437	0.796	0.842	0.754	0.527	0.319	0.3	0.31	0.274	0.252	0.213	0.439	0.411	0.622	0.541	1.18	1.22	1.3	1.27
NCI-H1563	0.743	0.774	0.7	0.584	0.541	0.857	0.579	0.662	0.622	0.567	0.855	0.658	0.762	0.846	0.859	0.976	0.93	0.935
NCI-H1650	0.637	0.561	0.529	0.433	0.374	0.434	0.354	0.337	0.335	0.353	0.223		0.208	0.217		0.649		1.19
NCI-H1651	0.638	0.688	0.646	0.569	0.473	0.543	0.525	0.594	0.541	0.538	0.851	0.949	0.769	1	0.647	0.742	0.88	0.789
NCI-H1666	0.837	0.826	0.807	0.609	0.536	0.882	0.893	0.979	0.833	0.514	0.839		0.98	0.759	0.99	0.87	0.993	0.925
NCI-H1734	0.513		0.455	0.278	0.201	0.407	0.406	0.394	0.406	0.399	0.855	1.01	0.709	0.815	0.81	0.82	0.779	0.763

Cell Line	relative viability (Alpelisib + OSI-027; first compound 0.04 µM)	relative viability (Alpelisib + OSI-027; first compound 0.1265 µM)	relative viability (Alpelisib + OSI-027; first compound 0.4 µM)	relative viability (Alpelisib + OSI-027; first compound 1.265 µM)	relative viability (Alpelisib + OSI-027; first compound 4 µM)	relative viability (Alpelisib + Pemetrexed; first compound 0.04 µM)	relative viability (Alpelisib + Pemetrexed; first compound 0.1265 µM)	relative viability (Alpelisib + Pemetrexed; first compound 0.4 µM)	relative viability (Alpelisib + Pemetrexed; first compound 1.265 µM)	relative viability (Alpelisib + Pemetrexed; first compound 4 µM)	relative viability (Vemurafenib + Bortezomib; first compound 0.03162 µM)	relative viability (Vemurafenib + Bortezomib; first compound 0.1 µM)	relative viability (Vemurafenib + Bortezomib; first compound 0.3162 µM)	relative viability (Vemurafenib + Bortezomib; first compound 1 µM)	relative viability (Vemurafenib + Foretinib; first compound 0.03162 µM)	relative viability (Vemurafenib + Foretinib; first compound 0.1 µM)	relative viability (Vemurafenib + Foretinib; first compound 0.3162 µM)	relative viability (Vemurafenib + Foretinib; first compound 1 µM)
NCI-H1755	0.684	0.575	0.719	0.55	0.509	0.409	0.432	0.437	0.371	0.402	0.877	0.878	0.712	0.931	0.882	0.889	0.891	0.832
NCI-H1915	0.628	0.597	0.61	0.558	0.401	0.498	0.527	0.525	0.49	0.428	0.894	0.995	0.886	0.91	1.09	1.05	1.03	1
NCI-H1975	0.675	0.714	0.656	0.326	0.228	0.298	0.293	0.294	0.285	0.279	0.361	0.313	0.24	0.385	0.957	0.969	0.792	0.963
NCI-H1993	0.596	0.492	0.524	0.571	0.521	0.606	0.544	0.571	0.545	0.432	1.02		1.25	1.03	0.793		0.98	0.823
NCI-H2009	0.602	0.574	0.655	0.428	0.429	0.987	1.03	1.08	1.01	0.968	0.944	0.922	0.583	0.778	1.19	1.18	1.06	1.06
NCI-H2023	0.357	0.33	0.311	0.192	0.156	0.214	0.221	0.219	0.181	0.185	0.869	0.948	0.859	0.943	0.881	0.811	1.09	0.742
NCI-H2085	0.826	0.658	0.709	0.585	0.574	0.848	0.847	0.86	0.865	0.803	1.05	0.91	0.914	0.847	0.856	0.92	1.26	0.902
NCI-H2087	0.503	0.484	0.482	0.342	0.336	0.634	0.625	0.679	0.65	0.606	0.759	0.701		0.753	1.02	0.979		1.12
NCI-H2126	0.796	0.67	0.667	0.576	0.38	0.686	0.752	0.674	0.584	0.509	1.07	1.07	1.09	1.14	1.13	0.696	1.31	1.09
NCI-H2228	0.612	0.53	0.385	0.239	0.152	0.35	0.228	0.39	0.272	0.319	1.03	1	1.24	1.15	0.845	0.931	0.828	0.869
NCI-H2347	0.484	0.398	0.356	0.3	0.233	0.459	0.418	0.442	0.425	0.405	0.737	0.79	0.712	1.02	0.662	0.91	0.843	0.811
NCI-H2405	0.588	0.534	0.639	0.417	0.384	1.08	0.975	1.02	0.814	0.571	0.925	0.995		0.829	1	1.03		1.03
NCI-H3122	0.928	0.791	0.648	0.37	0.176	0.208	0.208	0.204	0.197	0.173	0.989	1.01	1.04	1.07	0.992	0.957	1.02	1.07
PC-3 [JPC-3]	0.831	0.642	0.68	0.593	0.488	1.23	0.559	1.12	0.969	0.801	0.81		0.804	0.887	0.911		1.05	1.13
PC-14	0.865	0.83	0.985	0.574	0.467	0.157	0.145	0.134	0.137	0.138	0.728		0.88	0.777	0.882		0.876	0.942
RERF-LC-KJ	0.482	0.547	0.507	0.393	0.347	0.504	0.477	0.456	0.406	0.464	1.04	1.06	1.06	1.19	0.858	0.816	0.875	0.876
SK-LU-1	0.378	0.297	0.29	0.219	0.201	1.04	0.987	0.938	0.909	0.955	0.86	1.05		1.14	0.706	0.709	0.647	0.705
SW 1573	0.661	0.438	0.571	0.404	0.337	0.837	0.871	0.812	0.741	0.711	0.896	0.945	1.03	1.07	0.906	0.893	0.955	0.891
